Assay results reported in ChEMBL document CHEMBL1158987, “Isolation and structure determination of novel phosphatidylinositol kinase inhibitors, echiguanines A and B, from Streptomyces sp” (J Nat Prod, 1991).
In brackets after ≈: the same amount, converted by molar mass.

assay: Toxicity in ip dosed mouse; assay type: organism-based; settings: in vivo

Row | SMILES | LD50 [mg/kg]
1 | N=C(N)CCNC(=O)c1c[nH]c2nc(N)nc(O)c12 [ECHIGUANINE A] | > 100
2 | NCCCNC(=O)c1c[nH]c2nc(N)nc(O)c12 [ECHIGUANINE B] | > 100

assay: Inhibition of phosphatidylinositol 4-kinase in human A431 cell membrane by liquid scintillation counting; assay type: cell-based; settings: a-431

Row | SMILES | IC50 [µg/mL]
3 | N=C(N)CCNC(=O)c1c[nH]c2nc(N)nc(O)c12 [ECHIGUANINE A] | 0.04 (≈ 0.152 µM)
4 | NCCCNC(=O)c1c[nH]c2nc(N)nc(O)c12 [ECHIGUANINE B] | 0.11 (≈ 0.44 µM)
5 | O=c1[nH]cnc2nc[nH]c12 [HYPOXANTHINE] | > 100
6 | O=c1c(O)c(-c2ccc(O)c(O)c2)oc2cc(O)cc(O)c12 [QUERCETIN] | 1.8 (≈ 5.96 µM)
7 | N#Cc1cn([C@@H]2O[C@H](CO)[C@@H](O)[C@H]2O)c2ncnc(N)c12 [TOYOCAMYCIN] | 3.3 (≈ 11.3 µM)

The remaining lines, values ahead:

Row | IC50 [µg/mL] | SMILES
8 | 0.45 (≈ 3.26 µM) | O=Cc1cccc(O)c1O
9 | 35 (≈ 233 µM) | Nc1nc2c(c(=O)[nH]1)CC=N2 [7-DEAZAGUANINE]
10 | > 100 | Nc1[nH]cnc2ncnc1-2 [ADENINE]
11 | > 100 | Nc1nc2[nH]cnc2c(=O)[nH]1 [GUANINE]
12 | > 100 | Nc1nc(=O)[nH]c2nc[nH]c12 [ISOGUANINE]
13 | 0.25 (≈ 0.873 µM) | O=c1c(-c2ccc(O)c(O)c2)coc2cc(O)cc(O)c12 [OROBOL]
